# Test results: PubChem BioAssay (NCI)
#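 Dose response: 5 concentrations. Exposure: 48 h. Format: 96-well plates. Endpoint: linear interpolation; highest concentration if not reached. TGI is the concentration that stops growth completely.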
# Assays:
# Experiment in all cases: growth of human tumour cells (NCI), 48 h
# EKVX NSCLC = test system: EKVX NSCLC
# SK-MEL-28 melanoma = test system: SK-MEL-28 melanoma
# HOP-92 NSCLC = test system: HOP-92 NSCLC
# UACC-62 melanoma = test system: UACC-62 melanoma
# SF-268 CNS = test system: SF-268 CNS
# HCT-15 colon = test system: HCT-15 colon
# UO-31 renal = test system: UO-31 renal
# LOX IMVI melanoma = test system: LOX IMVI melanoma
# SN12C renal = test system: SN12C renal
# HS 578T breast = test system: HS 578T breast
Compound,TGI (EKVX NSCLC) [µM],TGI (SK-MEL-28 melanoma) [µM],TGI (HOP-92 NSCLC) [µM],TGI (UACC-62 melanoma) [µM],TGI (SF-268 CNS) [µM],TGI (HCT-15 colon) [µM],TGI (UO-31 renal) [µM],TGI (LOX IMVI melanoma) [µM],TGI (SN12C renal) [µM],TGI (HS 578T breast) [µM]
CCN(CC)C1=Nc2ccccc2-n2ccnc2C1,> 100,> 100,> 100,> 100,> 100,> 100,> 100,> 100,> 100,> 100
COC(=O)c1sc2nc(Nc3ccccc3)c(=Nc3ccccc3)sc2c1C,> 100,> 100,92,> 100,> 100,> 100,> 100,> 100,> 100,> 100
O=C(CSc1nc2ccccc2c(=O)n1-c1ccccc1)N=Nc1c(O)[nH]c2ccc(Br)cc12,9.83,13.8,7.76,25.9,> 38.3,30.2,6.64,> 31.5,4.22,> 100
O=[N+]([O-])C1=Cc2c(O)ccc(O)c2C2OC=CC12 (stereo not given),36.8,> 74.5,58.8,15.9,35.5,37,29.7,42.6,35,61.6
COc1ccc(OC)c([N+](=O)[O-])c1-c1nc2sc(Cl)cn2c1/C=N/N=C(N)N,57,33.4,31.2,29.5,64.8,> 100,33.1,> 100,37.5,51.7
O=S(=O)(O)c1cc(O)c(N=NC2S(=O)(=O)OCCOS2(=O)=O)c2ccccc12,> 100,> 100,> 100,> 100,> 100,> 100,> 100,> 100,> 100,> 100
O=C(Nc1ccc(Cl)cc1)c1cc(S(=O)(=O)Nc2nc3ncccc3[nH]2)c(SSc2cc(Cl)c(C(=O)Nc3ccc(Cl)cc3)cc2S(=O)(=O)Nc2nc3ncccc3[nH]2)cc1Cl,> 100,> 100,> 100,> 100,> 100,> 100,> 100,> 100,> 100,> 100
C[C@]12CCC(=O)C=C1CC[C@@H]1[C@@H]2CC[C@]2(C)C(=O)/C(=C/c3ccc([N+](=O)[O-])cc3)C[C@@H]12,> 100,> 100,> 100,46.2,> 100,> 100,> 100,> 100,> 100,> 100
COc1ccc(Nc2nc3ccccc3nc2-c2cccs2)cc1OC,> 10,> 10,> 10,> 10,> 10,> 10,> 10,> 10,> 10,> 10
CC1=NN(c2ccccc2)C(=O)/C1=C1\SC(c2ccccc2)(c2ccccc2)c2ccccc21,> 100,> 100,> 100,> 100,> 100,> 100,> 100,> 100,> 100,> 100
CCOC(=O)c1nc(SC)sc1NC(=O)c1ccc(OC)cc1,> 100,> 100,> 100,> 100,> 100,> 100,> 100,> 100,> 100,> 100
COc1cc2ncnc(Nc3cccc(Br)c3)c2cc1OC,31.9,> 44.9,36.3,17.5,> 89.6,22.7,33.6,10.2,> 52.4,53.2
Cc1cc2c3c(c1)S(=O)(=O)c1cc(Cl)ccc1N3CCC2,> 100,> 100,> 100,> 100,> 100,> 100,> 100,> 100,> 100,> 100
O=C1O/C(=C(\Br)c2ccc([N+](=O)[O-])cc2)c2ccccc21,> 100,> 100,> 100,> 100,> 100,> 81.5,> 100,> 100,> 100,> 100
O=C1C(NS(=O)(=O)c2ccccc2)=C(n2ccnc2)C(=O)c2ccccc21,> 100,> 100,> 100,> 100,> 100,> 100,> 100,> 100,> 100,> 100
O=c1[nH]c2c(C(F)(F)F)c(Cl)c(-c3ccccc3)nc2o1,41.6,> 100,75.7,> 100,> 100,> 100,> 100,> 100,32.4,> 100
CCCCCCc1cc2cc(C(=O)Nc3nc(C45CC6CC(CC(C6)C4)C5)cs3)c(=O)oc2cc1O,51.4,> 100,24.4,25.4,63,39.2,67.6,30.9,28.7,46.9
O=C(O)CSC1=NCCN1,> 100,> 100,> 100,> 100,> 100,> 100,> 100,> 100,> 100,> 100
CCOC(=O)Cn1nnc2ccc(Nc3nc4ccccc4nc3C(=O)OCC)cc21,> 100,> 100,> 100,> 100,> 100,> 100,> 100,> 100,> 100,> 100
CCCCOC(=O)Nc1ccc(S(=O)(=O)Nc2c(Cl)cccc2Cl)cc1,71.6,81.5,75.7,54.6,> 100,79.5,61.5,> 100,> 100,> 100
COc1cc(/C=C2\CC3C4CC=C5C[C@@H](O)CC[C@]5(C)C4CC[C@]3(C)\C2=N\O)cc(OC)c1OC (stereo not given in full),> 100,> 100,> 100,24,> 100,38.5,11.1,63.2,54.1,> 100
CC1OC1C(=O)P(=O)(O)O (stereo not given),> 100,> 100,> 100,> 100,> 100,> 100,> 100,> 100,> 100,> 100
COc1nc2ncc([C@@H](OC(C)=O)[C@@H](COC(C)=O)OC(C)=O)nc2c(=O)n1C,> 100,> 100,> 100,> 100,> 100,> 100,> 100,> 100,> 100,> 100
Cc1ccc2[nH]c3c(c2c1)C1CCC(C(C)(C)C)CC1C1C(=O)N(c2ccc(Oc4ccccc4)cc2)C(=O)C31 (stereo not given),> 100,> 100,45.7,> 100,41.6,> 100,> 100,> 100,37,8.28
COc1cc2c(c3nc4ccccc4nc13)-c1ccc(SC)c(=O)cc1[C@@H](NC(C)=O)CC2,0.795,> 100,> 75.1,> 100,> 100,> 21.7,> 100,> 100,> 100,0.0543
COC(=O)[C@H](Cc1ccccc1)NC(=O)N(CCN(CCC#N)C(=O)N[C@H](C(=O)OC)C(C)C)c1ccccc1,> 100,> 100,80.5,> 100,> 100,> 100,> 100,> 100,> 100,> 100
C[C@]12C(=O)OC[C@H](c3ccccc3)N1C(=O)N(Cc1ccccc1)[C@@H]2CO,> 100,> 100,> 100,> 100,> 100,> 100,> 100,> 100,> 100,> 100
C/C(=N/NC(=S)N1CCCCCC1)c1cccc(/C(C)=N\NC(=S)N2CCCCCC2)n1,7.98,6,3.58,5.27,9.46,5.36,3.39,3.41,4.57,8.82
